The values that follow come from patent US11827628B2, “Compositions and methods for inhibition of the JAK pathway” (Rigel Pharmaceuticals, Inc., priority 2005, dated 2023).

SMILES strings stand for the structures. Structures can show the parent of a compound that is named as a salt.

The subject of the first experiment is IL-4 stimulated expression of CD23 in human Ramos B cells (JAK-1 and JAK-3). Briefly: Assay for Ramos B-Cell Line Stimulated with IL-4 (CD23 upregulation, FACS). The format is cell-based. The following applies: Homo sapiens, Ramos, Ramos B cells stimulated with IL-4, CD23 expression by FACS; read-out: IC50, Example 41. In outline: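 Human Ramos B cells in RPMI with 5% serum were pre-incubated with compound or DMSO for 1 h at 37 °C, then stimulated with IL-4 at a final 50 units/mL for 20-24 h. CD23 upregulation was measured by anti-CD23-PE staining and flow cytometry, and IC50 values were calculated.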
A general note: Flow cytometry measures light scatter and fluorescence of single cells or particles in a stream.
Usually IC50 stands for the concentration at which inhibition is half-maximal. As for `NS(=O)(=O)c1ccc(Nc2ncc(F)c(Nc3ccc(C(=O)N4CCSCC4)cc3)n2)cc1` [IX-36, N2-(4-Aminosulfonylphenyl)-5-fluoro-N4-[4-(4-thiomorpholinyl)carbonylphenyl]-2,4-pyrimidinediamine], the half-inhibitory concentration (IC50) is 1.04 µM. On to `NS(=O)(=O)c1cccc(Nc2ncc(F)c(Nc3ccc(C(=O)N4CCS(=O)(=O)CC4)cc3)n2)c1` [IX-37, N2-(3-Aminosulfonylphenyl)-N4-[4-(1,1-dioxo-4-thiomorpholinyl)carbonylphenyl]-5-fluoro-2,4-pyrimidinediamine], for which the half-inhibitory concentration (IC50) came to 3.7 µM. Regarding `Cc1ccc(Nc2ncc(F)c(Nc3ccc(C(=O)N4CCS(=O)(=O)CC4)cc3)n2)cc1S(N)(=O)=O` [IX-38, N2-(3-Aminosulfonyl-4-methylphenyl)-N4-[4-(1,1-dioxo-4-thiomorpholinyl)carbonylphenyl]-5-fluoro-2,4-pyrimidinediamine], the IC50 amounted to 2.31 µM. On to `Cc1ccc(Nc2ncc(F)c(N[C@@H]3CCN(C(=O)CC#N)C3)n2)cc1S(N)(=O)=O` [IX-45, N2-(3-Aminosulfonyl-4-methylphenyl)-N4-[(4R)-1-(2-cyanoacetyl)-pyrrolidin-4-yl)-5-fluoro-2,4-pyrimidinediamine], for which the IC50 stood at 3.62 µM. As to `CNS(=O)(=O)c1ccc(Nc2ncc(F)c(Nc3ccc(OC)c(OC)c3)n2)cc1OC` [IX-50, N4-(3,4-Dimethoxyphenyl)-5-fluoro-N2-[4-(N-methyl)aminosulfonyl-3-methoxyphenyl]-2,4-pyrimidinediamine], the concentration for half-maximal inhibition (IC50) came to 0.179 µM. Same read-out and setting: then `CNS(=O)(=O)c1ccc(Nc2ncc(F)c(Nc3cc(OC)cc(OC)c3)n2)cc1OC` [IX-51, N4-(3,5-Dimethoxyphenyl)-5-fluoro-N2-[4-(N-methyl)aminosulfonyl-3-methoxyphenyl]-2,4-pyrimidinediamine], with 0.24 µM. The same measure, in the same setting: the value for `CNS(=O)(=O)c1ccc(Nc2ncc(F)c(Nc3ccc(Cl)c(C(F)(F)F)c3)n2)cc1OC` [IX-52, N4-(4-Chloro-3-trifluoromethylphenyl)-5-fluoro-N2-[4-(N-methyl)aminosulfonyl-3-methoxyphenyl]-2,4-pyrimidinediamine] was 0.117 µM; that for `CNS(=O)(=O)c1ccc(Nc2ncc(F)c(Nc3ccc(OC(F)(F)F)c(Cl)c3)n2)cc1OC` [IX-53, N4-(3-Chloro-4-trifluoromethoxyphenyl)-5-fluoro-N2-[4-(N-methyl)aminosulfonyl-3-methoxyphenyl]-2,4-pyrimidinediamine] was 0.24 µM. Regarding `CNS(=O)(=O)c1ccc(Nc2ncc(F)c(Nc3cccc(O)c3)n2)cc1OC` [VI-1, 5-Fluoro-N4-(3-hydroxyphenyl)-N2-[4-(N-methyl)aminosulfonyl-3-methoxyphenyl]-2,4-pyrimidinediamine], the 50% inhibitory concentration (IC50) was determined as 0.205 µM. Consider `COc1ccc(N(C)c2nc(Nc3ccc(C)c(S(N)(=O)=O)c3)ncc2F)cc1Cl` [VI-19, N2-(3-Aminosulfonyl-4-methylphenyl)-N4-(3-chloro-4-methoxyphenyl)-5-fluoro-N4-methyl-2,4-pyrimidinediamine], for which the half-maximal inhibitory concentration (IC50) came to 1.03 µM. Same read-out and setting: then `COc1ccc(N(C)c2nc(Nc3cc(C)c(F)c(S(N)(=O)=O)c3)ncc2F)cc1Cl` [VI-20, N2-(3-Aminosulfonyl-4-fluoro-5-methylphenyl)-N4-(3-chloro-4-methoxyphenyl)-5-fluoro-N4-methyl-2,4-pyrimidinediamine], with 0.726 µM; and `COc1ccc(N(C)c2nc(Nc3cc(C)c(Cl)c(S(N)(=O)=O)c3)ncc2F)cc1Cl` [VI-21, N2-(3-Aminosulfonyl-4-chloro-5-methylphenyl)-N4-(3-chloro-4-methoxyphenyl)-5-fluoro-N4-methyl-2,4-pyrimidinediamine], with 11.3 µM; and `CCCN(c1ccc(OC)c(Cl)c1)c1nc(Nc2ccc(C)c(S(N)(=O)=O)c2)ncc1F` [VI-22, N2-(3-Aminosulfonyl-4-methylphenyl)-N4-(3-chloro-4-methoxyphenyl)-5-fluoro-N4-propyl-2,4-pyrimidinediamine], with 0.663 µM. Still for that read-out and setting: then `CCCN(c1ccc(OC)c(Cl)c1)c1nc(Nc2cc(C)c(F)c(S(N)(=O)=O)c2)ncc1F` [VI-23, N2-(3-Aminosulfonyl-4-fluoro-5-methylphenyl)-N4-(3-chloro-4-methoxyphenyl)-5-fluoro-N4-propyl-2,4-pyrimidinediamine], with 0.597 µM; and `COc1ccc(Nc2nc(Nc3ccncc3S(N)(=O)=O)ncc2F)cc1Cl` [VI-31, N2-(3-Aminosulfonylpyrid-4-yl)-N4-(3-chloro-4-methoxyphenyl)-5-fluoro-2,4-pyrimidinediamine], with 18.3 µM; and `CCC(=O)NS(=O)(=O)c1cccc(Nc2ncc(F)c(Nc3ccc(CCOC(=O)N(C)C)cc3)n2)c1` [VI-64, N4-{4-[2-(Dimethylaminocarbonyloxy)ethyl]phenyl}-5-fluoro-N2-(3-propionylaminosulfonylphenyl)-2,4-pyrimidinediamine], with 5.8 µM.

On to `Cc1ccc(Nc2ncc(F)c(Nc3ccc(CCNC(N)=O)cc3)n2)cc1S(N)(=O)=O` [VI-71, N4-{4-[2-(Aminocarbonylamino)ethyl]phenyl}-N2-(3-aminosulfonyl-4-methylphenyl)-5-fluoro-2,4-pyrimidinediamine], for which the IC50 was 1.07 µM. As for `NC(=O)NCCc1ccc(Nc2nc(Nc3cccc(S(N)(=O)=O)c3)ncc2F)cc1` [VI-72, N4-{4-[2-(Aminocarbonylamino)ethyl]phenyl}-N2-(3-aminosulfonylphenyl)-5-fluoro-2,4-pyrimidinediamine], the IC50 turned out to be 0.455 µM. On to `C#CCNS(=O)(=O)c1cccc(Nc2ncc(F)c(Nc3ccc(OCC#C)cc3)n2)c1` [VI-78, 5-Fluoro-N2-[3-(prop-2-ynylaminosulfonyl)phenyl]-N4-[4-(prop-2-ynyloxy)phenyl]-2,4-pyrimidinediamine], for which the concentration for half-maximal inhibition (IC50) came out at 0.161 µM. Regarding `C#CCNS(=O)(=O)c1cccc(Nc2nc(Nc3ccc(C)c(S(N)(=O)=O)c3)ncc2F)c1` [VI-79, N2-(3-Aminosulfonyl-4-methylphenyl)-5-fluoro-N4-[3-(prop-2-ynylaminosulfonyl)phenyl]-2,4-pyrimidinediamine], the concentration for half-maximal inhibition (IC50) was determined as 0.096 µM.

For `C#CCNS(=O)(=O)c1cccc(Nc2nc(Nc3ccc(S(N)(=O)=O)cc3)ncc2F)c1` [VI-80, N2-(4-Aminosulfonylphenyl)-5-fluoro-N4-[3-(prop-2-ynylaminosulfonyl)phenyl]-2,4-pyrimidinediamine], the concentration for half-maximal inhibition (IC50) stood at 0.36 µM.

`C#CCNS(=O)(=O)c1cccc(Nc2nc(Nc3cccc(S(N)(=O)=O)c3)ncc2F)c1` [VI-81, N2-(3-Aminosulfonylphenyl)-5-fluoro-N4-[3-(prop-2-ynylaminosulfonyl)phenyl]-2,4-pyrimidinediamine]: the 50% inhibitory concentration (IC50) stood at 3.17 µM.

For the molecule `CCCCNS(=O)(=O)c1cccc(Nc2ncc(F)c(Nc3ccc(C)c(C#N)c3)n2)c1` [VI-96, N2-(3-Butylaminosulfonylphenyl)-N4-(3-cyano-4-methylphenyl)-5-fluoro-2,4-pyrimidinediamine], the IC50 was determined as 0.803 µM. As for `CCCCNS(=O)(=O)c1cccc(Nc2ncc(F)c(Nc3ccc(F)c(Cl)c3)n2)c1` [VI-97, N2-(3-Butylaminosulfonylphenyl)-N4-(3-chloro-4-fluorophenyl)5-fluoro-2,4-pyrimidinediamine], the IC50 is 3.01 µM.

The same experiment, now with this note: Ramos B cells stimulated with IL-4, CD23 expression by FACS; read-out: IC50, Example 41.
For `CNS(=O)(=O)c1cc(Nc2ncc(F)c(Nc3ccc(C(=O)N4CCS(=O)(=O)CC4)cc3)n2)ccc1C` [IX-39, N4-[4-(1,1-dioxo-4-thiomorpholinyl)carbonylphenyl]-5-Fluoro-N2-[3-(N-methylaminosulfony)-4-methylphenyl]-2,4-pyrimidinediamine], the IC50 stood at 1.4 µM. With `COC(=O)CNS(=O)(=O)c1cccc(Nc2ncc(F)c(Nc3ccc(OC)c(Cl)c3)n2)c1` [VI-7, N4-(3-Chloro-4-methoxyphenyl)-5-fluoro-N2-[3-(N-methoxycarbonylmethylene)aminosulfonylphenyl]-2,4-pyrimidinediamine], the concentration for half-maximal inhibition (IC50) amounted to 0.766 µM.

On to `COC(=O)CNS(=O)(=O)c1cccc(Nc2ncc(F)c(Nc3ccc(Cl)c(Cl)c3)n2)c1` [VI-8, N4-(3,4-Dichlorophenyl)-5-fluoro-N2-[3-(N-methoxycarbonylmethylene)aminosulfonylphenyl]-2,4-pyrimidinediamine], for which the 50% inhibitory concentration (IC50) amounted to 2.28 µM. Regarding `CCOC(=O)CN(c1ccc(OC)c(Cl)c1)c1nc(Nc2cccc(S(N)(=O)=O)c2)ncc1C(=O)OCC` [VI-24, N2-(3-Aminosulfonylphenyl)-5-carboethoxy-N4-(N-carboethoxymethylene-N-3-chloro-4-methoxyphenyl)-2,4-pyrimidinediamine], the IC50 was determined as 8.62 µM. On the same count and under the same terms, the value for `CCOC(=O)CN(c1ccc(OC)c(Cl)c1)c1nc(Nc2ccc(C)c(S(N)(=O)=O)c2)ncc1C(=O)OCC` [VI-25, N2-(3-Aminosulfonyl-4-methylphenyl)-5-carboethoxy-N4-(N-carboethoxymethylene-N-3-chloro-4-methoxyphenyl)-2,4-pyrimidinediamine] was 9.91 µM; that for `COc1ccc(Nc2nc(Nc3cccc(S(N)(=O)=O)c3)ncc2C#C[Si](C)(C)C)cc1Cl` [VI-28, N2-(3-Aminosulfonylphenyl)-N4-(3-chloro-4-methoxyphenyl)-5-trimethylsilylacetylene-2,4-pyrimidinediamine] was 0.754 µM; that for `C#CCOc1ccc(Nc2nc(Nc3ccc(C)c(S(=O)(=O)NC(=O)CC)c3)ncc2F)cc1` [VI-56, 5-Fluoro-N2-(4-methyl-3-propionylaminosulfonylphenyl)-N4-[4-(prop-2-ynyloxy)phenyl]-2,4-pyrimidinediamine] was 9.66 µM.

Still in this experiment, the particulars now being: Ramos B cells stimulated with IL-4, CD23 expression by FACS; sodium salt; read-out: IC50, Example 41.
In the case of `CCC(=O)NS(=O)(=O)c1cccc(Nc2ncc(F)c(Nc3ccc(CCOC(=O)N(C)C)cc3)n2)c1` [VI-66, N4-{4-[2-(Dimethylaminocarbonyloxy)ethyl]phenyl}-5-fluoro-N2-(3-propionylaminosulfonylphenyl)-2,4-pyrimidinediamine sodium salt], the IC50 is 6.09 µM.
